Data as given in US20250381179A1, “CHROMAN-BASED COMPOUNDS FOR TREATING CANCER” (priority 2024, published 2025).
Entries after “also recorded” stand apart in the source; their conditions may differ.

Experiment: Phase 1 study: safety and tolerability (TEAEs, NCI CTCAE v5.0)
Method: The study employed an open-label, 3+3 design, with the option of adding backfill patients to each cohort cleared and deemed safe. […] Tumor responses were assessed every 2 cycles using RECIST v1.1 criteria. […] The study also involves an ongoing dose escalation study where participants receive 100 mg, 200 mg, 300 mg, 400 mg, and 600 mg once daily (QD) dose levels.
Safety was assessed through the analysis of the reported incidence of treatment-emergent AEs. Treatment-emergent AEs are those with an onset on or after the initiation of therapy and will be graded according to NCI CTCAE Version 5.0. Other safety endpoints, including laboratory results, vital signs, and ECG findings, were summarized for all patients in the Safety set.

[1] = Cohort 2/200 mg QD, patient 4, first listed event
[2] = Cohort 2/200 mg QD, patient 4, second listed event
[3] = Cohort 3/300 mg QD, patient 1, first listed event
[4] = Cohort 3/300 mg QD, patient 1, second listed event

SMILES: O=C1CC[C@H](N2Cc3cc(N4CCN(CC5CCN(c6ccc([C@@H]7c8ccc(O)cc8OC[C@@H]7c7ccccc7)cc6F)CC5)CC4)ccc3C2=O)C(=O)N1 [compound (1-g), (S)-3-(5-(4-((1-(2-fluoro-4-((3S,4R)-7-hydroxy-3-phenylchroman-4-yl)phenyl)piperidin-4-yl)methyl)piperazin-1-yl)-1-oxoisoindolin-2-yl)piperidine-2,6-dione]
- Duration of TEAE leading to dose interruption: Pain in extremity [1]: 56 days
- Related to Compound (1-g), TEAE leading to dose interruption: Pain in extremity [1]: No
- CTCAE Grade of TEAE leading to dose interruption: Pain in extremity [2]: 2
- Related to Compound (1-g), TEAE leading to dose interruption: Pain in extremity [2]: No
- participants with TEAEs that led to dose interruption (Cohort 3 (300 mg QD)): 2 participants
- CTCAE Grade of TEAE leading to dose interruption: Anaemia (Cohort 3/300 mg QD, patient 1): 3
- Related to Compound (1-g), TEAE leading to dose interruption: Anaemia (Cohort 3/300 mg QD, patient 1): No
- CTCAE Grade of TEAE leading to dose interruption: Acute kidney injury [3]: 3
- Duration of TEAE leading to dose interruption: Acute kidney injury [3]: 6 days
- Related to Compound (1-g), TEAE leading to dose interruption: Acute kidney injury [3]: No
- CTCAE Grade of TEAE leading to dose interruption: Acute kidney injury [4]: 3
- Duration of TEAE leading to dose interruption: Acute kidney injury [4]: 7 days
- Related to Compound (1-g), TEAE leading to dose interruption: Acute kidney injury [4]: No
- CTCAE Grade of TEAE leading to dose interruption: Muscular weakness (Cohort 3/300 mg QD, patient 2): 2
- CTCAE Grade of TEAE leading to dose interruption: Upper respiratory tract infection (Cohort 3/300 mg QD, patient 2): 2
- Duration of TEAE leading to dose interruption: Upper respiratory tract infection (Cohort 3/300 mg QD, patient 2): 8 days
- Related to Compound (1-g), TEAE leading to dose interruption: Muscular weakness (Cohort 3/300 mg QD, patient 2): No
- Related to Compound (1-g), TEAE leading to dose interruption: Upper respiratory tract infection (Cohort 3/300 mg QD, patient 2): No
- participants with TEAEs that led to dose interruption (Cohort 4 and 5 (400, 600 mg QD)): No participant experienced TEAEs that led to dose interruption
- Constipation, Related-TEAE All Grades (N = 37): 3 n (%)
- Constipation, Related-TEAE Grade ≥ 3 (N = 37): 0 n (%)
- Constipation, TEAE All Grades (N = 37): 4 (11) n (%)
- Constipation, TEAE Grade ≥ 3 (N = 37): 0 n (%)
- Dehydration, Related-TEAE All Grades (N = 37): 0 n (%)
- Dehydration, Related-TEAE Grade ≥ 3 (N = 37): 0 n (%)
- Dehydration, TEAE All Grades (N = 37): 5 (14) n (%)
- Dehydration, TEAE Grade ≥ 3 (N = 37): 2 (5) n (%)
- Fatigue, Related-TEAE All Grades (N = 37): 2 n (%)
- Fatigue, Related-TEAE Grade ≥ 3 (N = 37): 0 n (%)
- Fatigue, TEAE All Grades (N = 37): 6 (16) n (%)
- Fatigue, TEAE Grade ≥ 3 (N = 37): 1 (3) n (%)
- Grade 5 event of seizure (N = 37): 1 event
- Hot flush, Related-TEAE All Grades (N = 37): 5 n (%)
- Hot flush, Related-TEAE Grade ≥ 3 (N = 37): 0 n (%)
- Hot flush, TEAE All Grades (N = 37): 5 (14) n (%)
- Hot flush, TEAE Grade ≥ 3 (N = 37): 0 n (%)
- Nausea, Related-TEAE All Grades (N = 37): 5 n (%)
- Nausea, Related-TEAE Grade ≥ 3 (N = 37): 0 n (%)
- Nausea, TEAE All Grades (N = 37): 7 (19) n (%)
- Nausea, TEAE Grade ≥ 3 (N = 37): 0 n (%)
- Neutrophil count decreased, Related-TEAE All Grades (N = 37): 4 n (%)
- Neutrophil count decreased, Related-TEAE Grade ≥ 3 (N = 37): 0 n (%)
- Neutrophil count decreased, TEAE All Grades (N = 37): 6 (16) n (%)
- Neutrophil count decreased, TEAE Grade ≥ 3 (N = 37): 1 (3) n (%)
- TEAE constipation, participants (N = 37): 10.8%
- TEAE dehydration, participants (N = 37): 13.5%
- TEAE fatigue, participants (N = 37): 16.2%
- TEAE hot flush, participants (N = 37): 13.5%
- TEAE nausea, participants (N = 37): 18.9%
- TEAE neutrophil count decreased, participants (N = 37): 16.2%
- compound-related SAEs (N = 37): No compound (1-g)-related SAEs were observed
- deaths reported, all assessed as unrelated to compound (1-g) (N = 37): 3 deaths
- dose reductions or treatment discontinuations due to TEAEs (N = 37): no dose reductions or treatment discontinuations due to TEAEs
- grade of treatment-related AEs (N = 37): All treatment-related AEs were Grade 1 or 2
- participants with at least a TEAE (N = 37): 78%
- patients experiencing SAEs (nine SAEs) (N = 37): 8 patients
- related TEAE hot flush, participants (N = 37): 13.5%
- related TEAE nausea, participants (N = 37): 13.5%
- related TEAE neutrophil count decrease, participants (N = 37): 10.8%
- relatedness of TEAEs that led to dose interruption (N = 37): None of these were considered related to compound (1-g)
- participants with compound (1-g) related TEAEs (N = 37, fifteen participants): 40.5%
- participants with Grade 23 TEAEs (N = 37, ten participants): 27.0%
- Patients with Any Compound (1-g) related TEAE (Overall (N = 37)): 15 (40.5) n (%)
- Patients with Any TEAE (Overall (N = 37)): 29 (78.4) n (%)
- TEAE: Abdominal Distension (Overall (N = 37)): 1 (2.7) n (%)
- TEAE: Abdominal Pain (Overall (N = 37)): 2 (5.4) n (%)
- TEAE: Acute Kidney Injury (Overall (N = 37)): 1 (2.7) n (%)
- TEAE: Adrenal Insufficiency (Overall (N = 37)): 1 (2.7) n (%)
- TEAE: Alopecia (Overall (N = 37)): 1 (2.7) n (%)
- TEAE: Anaemia (Overall (N = 37)): 2 (5.4) n (%)
- TEAE: Anxiety (Overall (N = 37)): 1 (2.7) n (%)
- TEAE: Arthralgia (Overall (N = 37)): 2 (5.4) n (%)
- TEAE: Axillary Vein Thrombosis (Overall (N = 37)): 1 (2.7) n (%)
- TEAE: Back Pain (Overall (N = 37)): 3 (8.1) n (%)
- TEAE: Basal Cell Carcinoma (Overall (N = 37)): 1 (2.7) n (%)
- TEAE: Breast Pain (Overall (N = 37)): 1 (2.7) n (%)
- TEAE: Confusional State (Overall (N = 37)): 1 (2.7) n (%)
- TEAE: Constipation (Overall (N = 37)): 4 (10.8) n (%)
- TEAE: Cough (Overall (N = 37)): 1 (2.7) n (%)
- TEAE: Covid-19 Pneumonia (Overall (N = 37)): 1 (2.7) n (%)
- TEAE: Dehydration (Overall (N = 37)): 5 (13.5) n (%)
- TEAE: Diarrhoea (Overall (N = 37)): 3 (8.1) n (%)
- TEAE: Dizziness (Overall (N = 37)): 1 (2.7) n (%)
- TEAE: Dysgeusia (Overall (N = 37)): 1 (2.7) n (%)
- TEAE: Dyspepsia (Overall (N = 37)): 1 (2.7) n (%)
- TEAE: Dyspnoea (Overall (N = 37)): 3 (8.1) n (%)
- TEAE: Dysuria (Overall (N = 37)): 2 (5.4) n (%)
- TEAE: Eructation (Overall (N = 37)): 1 (2.7) n (%)
- TEAE: Fall (Overall (N = 37)): 2 (5.4) n (%)
- TEAE: Fatigue (Overall (N = 37)): 6 (16.2) n (%)
- TEAE: Flatulence (Overall (N = 37)): 2 (5.4) n (%)
- TEAE: Fracture (Overall (N = 37)): 1 (2.7) n (%)
- TEAE: Fungal Infection (Overall (N = 37)): 1 (2.7) n (%)
- TEAE: Haematoma (Overall (N = 37)): 1 (2.7) n (%)
- TEAE: Hot Flush (Overall (N = 37)): 5 (13.5) n (%)
- TEAE: Hyperglycaemia (Overall (N = 37)): 1 (2.7) n (%)
- TEAE: Hyperhidrosis (Overall (N = 37)): 3 (8.1) n (%)
- TEAE: Hypokalaemia (Overall (N = 37)): 2 (5.4) n (%)
- TEAE: Hypotension (Overall (N = 37)): 1 (2.7) n (%)
- TEAE: Influenza Like Illness (Overall (N = 37)): 1 (2.7) n (%)
- TEAE: Insomnia (Overall (N = 37)): 3 (8.1) n (%)
- TEAE: Lower Respiratory Tract Congestion (Overall (N = 37)): 1 (2.7) n (%)
- TEAE: Lymphocyte Count Decreased (Overall (N = 37)): 1 (2.7) n (%)
- TEAE: Muscle Spasm (Overall (N = 37)): 1 (2.7) n (%)
- TEAE: Muscular Weakness (Overall (N = 37)): 2 (5.4) n (%)
- TEAE: Musculoskeletal Stiffness (Overall (N = 37)): 1 (2.7) n (%)
- TEAE: Nail Disorder (Overall (N = 37)): 1 (2.7) n (%)
- TEAE: Nasal Congestion (Overall (N = 37)): 1 (2.7) n (%)
- TEAE: Nausea (Overall (N = 37)): 7 (18.9) n (%)
- TEAE: Neutrophil Count Decreased (Overall (N = 37)): 6 (16.2) n (%)
- TEAE: Oedema Peripheral (Overall (N = 37)): 2 (5.4) n (%)
- TEAE: Ophthalmic Migraine (Overall (N = 37)): 1 (2.7) n (%)
- TEAE: Oral Pain (Overall (N = 37)): 1 (2.7) n (%)
- TEAE: Pain In Extremity (Overall (N = 37)): 1 (2.7) n (%)
- TEAE: Pharyngitis (Overall (N = 37)): 1 (2.7) n (%)
- TEAE: Platelet Count Decreased (Overall (N = 37)): 2 (5.4) n (%)
- TEAE: Pleural Effusion (Overall (N = 37)): 1 (2.7) n (%)
- TEAE: Pneumonia (Overall (N = 37)): 2 (5.4) n (%)
- TEAE: Productive Cough (Overall (N = 37)): 1 (2.7) n (%)
- TEAE: Rash Maculo-Papular (Overall (N = 37)): 2 (5.4) n (%)
- TEAE: Rhinitis Allergic (Overall (N = 37)): 1 (2.7) n (%)
- TEAE: Rib Fracture (Overall (N = 37)): 1 (2.7) n (%)
- TEAE: Seizure (Overall (N = 37)): 1 (2.7) n (%)
- TEAE: Sepsis (Overall (N = 37)): 1 (2.7) n (%)
- TEAE: Tremor (Overall (N = 37)): 2 (5.4) n (%)
- TEAE: Upper Respiratory Tract Infection (Overall (N = 37)): 3 (8.1) n (%)
- TEAE: Urinary Tract Infection (Overall (N = 37)): 2 (5.4) n (%)
- TEAE: Vaginal Haemorrhage (Overall (N = 37)): 1 (2.7) n (%)
- TEAE: Vomiting (Overall (N = 37)): 2 (5.4) n (%)
- related TEAE: Alopecia (Overall (N = 37)): 1 (2.7) n (%)
- related TEAE: Arthralgia (Overall (N = 37)): 1 (2.7) n (%)
- related TEAE: Constipation (Overall (N = 37)): 3 (8.1) n (%)
- related TEAE: Diarrhea (Overall (N = 37)): 3 (8.1) n (%)
- related TEAE: Dysgeusia (Overall (N = 37)): 1 (2.7) n (%)
- related TEAE: Eructation (Overall (N = 37)): 1 (2.7) n (%)
- related TEAE: Fatigue (Overall (N = 37)): 2 (5.4) n (%)
- related TEAE: Flatulence (Overall (N = 37)): 1 (2.7) n (%)
- related TEAE: Hyperhidrosis (Overall (N = 37)): 1 (2.7) n (%)
- related TEAE: Nail Disorder (Overall (N = 37)): 1 (2.7) n (%)
- related TEAE: Platelet Count Decreased (Overall (N = 37)): 1 (2.7) n (%)
- related TEAE: Tremor (Overall (N = 37)): 1 (2.7) n (%)
- related TEAE: Vomiting (Overall (N = 37)): 1 (2.7) n (%)
- Compound (1-g) related TEAEs of CTCAE grade >=3 (all cohorts, N = 37): no Grade≥3 TEAEs were considered as related to compound (1-g); also recorded: No data meets output criteria
- participants with TEAEs that led to dose interruption (all cohorts, N = 37): Nine
- dose-related trend in incidence of related TEAEs (between 100 mg and 600 mg): No dose-related trends were evident
- related TEAE: Hot Flush (human, in vivo): 5 (13.5) n (%)
- related TEAE: Nausea (human, in vivo): 5 (13.5) n (%)
- related TEAE: Neutrophil Count Decreased (human, in vivo): 4 (10.8) n (%)
